The values that follow come from US4929736A, “Latent isocynate derivatives useful for deactivating enzymes” (Board of Trustees of the Wichita State University, priority 1986, dated 1990).

For data set [1], the system named is Elastase-induced Emphysema in the Mouse. Nature of the data set: Protection against elastase-induced emphysema in the mouse, lung histology. It is filed as in vivo. The text has this: (§1) Animal models of emphysema include intratracheal administration of an elastolytic protease (PPE, HLE or papain) to cause a slowly progressive, destructive lesion in the lung. These proteases induce a lesion that is evident in the first few hours.
(§2) The method used for in vivo evaluation involved injection of a test solution into the trachea, or directly into one bronchus. In general, the method of Hayes et al J. Pathol, 117, 1-14 (1975) was used. A fine teflon tubing was connected to a pipette and inserted into the trachea after the animals were lightly anesthetized by IP injection. The contents of the pipette were then ejected. […] It was further determined that instillation of 40 ug of PPE in the same volume causes an unambigous emphysematous lesion which is restricted to the instilled lobe. After 7 to 10 days to allow inflamation to subside, the animals were sacrificed followed by exsanguination via the descending aorta. PPE was used rather than HLE to produce the lesion because emphysema developes over a much shorter period of time. Emphysema then was induced under acute condition so that the effects of the compounds tested could be investigated under the time constraints of a laboratory procedure. PPE with an animal model has been used in research in the past to study other, unrelated, inhibitors. (Bergeson, S. H. et al., European Patent No. 0189305 (1986).
In view of the fact that two tenths umoles of inhibitor is 100 times of the amount of the inhibitor necessary to inhibit the 40 ug of elastase in vitro, dosages were kept in the range of 1 to 10 umoles of inhibitor.
*Elastase: 20 ul containing 40 ug pancreatic elastase
As noted above, the method of in vivo testing is a modification of that of Hayes et al. However, the test solutions are inserted past the vocal chords into one bronchus by resistance. It was established initially that 20 ul of a solution of PPE (2 milligrams per milliter in saline) would create a reliable and unambigous emphysematous lesion. It should also be noted that the animals were scored for the presence of absence of such a lesion in any lobe without regard to the severity of the lesion.

Data set [2] has as its target Porcine pancreatic elastase (PPE) (Sus scrofa, UniProt P00772). As to the kind of experiment: Spectrophotometric assay of PPE inactivation (in vitro). Particulars: two tenths umoles. It is filed as biochemical.
Data set [3] deals with T1, Human leukocyte elastase (HLE) (Homo sapiens, UniProt P08246).
T1 construct: purchased Elastin Products, St. Louis, Mo
T1 sequence (P08246 30-267): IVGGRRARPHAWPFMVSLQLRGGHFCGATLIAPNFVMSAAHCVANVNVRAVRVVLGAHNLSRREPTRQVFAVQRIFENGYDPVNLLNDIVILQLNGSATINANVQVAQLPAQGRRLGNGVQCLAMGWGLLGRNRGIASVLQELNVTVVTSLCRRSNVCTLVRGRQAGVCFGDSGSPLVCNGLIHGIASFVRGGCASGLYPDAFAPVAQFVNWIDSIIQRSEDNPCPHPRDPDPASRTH
Nature of the data set: Spectrophotometric assay of HLE inactivation (in vitro). Format: biochemical. On the procedure:
The appropriate amount of inhibitor in acetonitrile was mixed with PPE in phosphate buffer solution and placed in a constant temperature bath. Aliquots were withdrawn at different time intervals and transferred to a cuvette containing 100 uL of substrate, 140 uL of acetonitrile, and 2 mL of phosphate buffer, pH 6.5. After incubating for 30 seconds, the absorbance change was monitored for two minutes at 347.5 nm. […] Controlled reactions for 100% PPE activity were run in the presence of acetonitrile. A similar procedure was followed for HLE.
The reaction of an irreversible inhibitor with PPE and HLE may be illustrated by the scheme shown below: [drawing 5] where EI is the noncovalently bound enzyme-inactivator complex and E-I is the final product with the inhibitor covalently bound to the enzyme. The kinetics data were analyzed according to known procedures. The apparent pseudo-first-order inactivation rate constants were determined from the slopes of semilogarithmic plots of enzymatic activity remaining versus time using the following equation: [formula] where Et /EO is the amount of active enzyme remaining after time "t".
The assay procedure used was the procedure identified relative to the tests above in Table I.
(kobsd) were determined by plotting in [E]t /[E]o vs time.

For the next data set, the system named is ICR mice. As to the kind of experiment: Tolerance of mice to IP or IT injection of inhibitor. It is filed as in vivo, mouse. As to conditions: all treatments of Table VIII.
Text: as §1
as §2, with “PPE with an animal model has been used in research in the past to study other, unrelated, inhibitors. (Bergeson, S. H. et al., European Patent No. 0189305 (1986).” left out
Initially, the tolerance of 30-40 gram male ICR mice to intraperitoneal (IP) or intratracheal (IT) injection of inhibitor (Compound 5, Table I) was evaluated.

Data set [4] deals with PPE-induced emphysema in ICR mice. Nature of the data set: Simultaneous intratracheal instillation of PPE with inhibitor, emphysema induction. Format: in vivo, mouse. As to conditions: for Emphysema: 10 days.
Text: as §1, §2
Animals were also used to evaluate the effect of simultaneous intratracheal installation of PPE with the above inhibitor compound. The ICR mice in this experiment were used to evaluate the effect of the inhibitor in preventing emphysema induction. Table IX below illustrates the results of these tests:
All animals were sacrificed ten days after instillation.

The test system of the next data set is thromboxane synthetease. Particulars: cited from earlier work.
Setting [5] is: 1 umole, simultaneous administration, n=4.
Setting [6] is: 5 umoles, 30 min, then elastase, n=3.
Setting [7] is: 10 umoles, 1 hr, then elastase, n=7.
Where [8] appears, read: 10 umoles, 2 hr, then elastase, n=6.
Where [9] appears, read: 10 umoles, 3 hr, then elastase, n=2.

Porcine pancreatic elastase (PPE), sequence (P00772 27-266): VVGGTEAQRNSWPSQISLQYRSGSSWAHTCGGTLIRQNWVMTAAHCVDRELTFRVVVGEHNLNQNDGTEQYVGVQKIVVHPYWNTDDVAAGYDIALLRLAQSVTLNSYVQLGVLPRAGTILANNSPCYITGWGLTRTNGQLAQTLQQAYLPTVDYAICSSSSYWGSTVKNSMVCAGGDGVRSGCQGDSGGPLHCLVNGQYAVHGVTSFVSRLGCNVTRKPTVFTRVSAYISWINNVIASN

Consider `CCC[C@H](NC(=O)n1ccnc1)C(=O)OC` [Compound 5, Table I, L-N-(Imidazol-1-ylcarbonyl)norvaline Methyl Ester], for which the “Mouse Lung Histology, Emphysematous” value amounted to 0 in data set [1] (setting [5]); 0 in data set [1] (setting [6]); 5 in data set [1] (setting [7]); 6 in data set [1] (setting [8]); 2 in data set [1] (setting [9]); 0 in data set [1] (10 umoles, no elastase, n=7). In addition, the “Mouse Lung Histology, Normal” value is 4 in data set [1] (setting [5]); 3 in data set [1] (setting [6]); 2 in data set [1] (setting [7]); 0 in data set [1] (setting [8]); 0 in data set [1] (setting [9]); 7 in data set [1] (10 umoles, no elastase, n=7). Further, in data set [1] (all mice, all doses), the “tolerance of inhibitor doses” value is “all mice treated tolerated all doses”. The “effect on PPE in the animal model (in words)” value in data set [1] (mouse, in vivo) is reported as “block the effects of PPE”. Moreover, the toxic side effects result in data set [1] (mouse, in vivo) is “devoid of any toxic side effects”. For the same compound, the “0.2 umoles inhibitor relative to amount necessary to inhibit 40 ug elastase in vitro” value in data set [2] was determined as 100 times. In addition, the “effectiveness against HLE relative to PPE” value in data set [3] (HLE vs PPE in vitro) is given as “about eighty”. Also, the “Inhibition of HLE (in words)” value in data set [3] (listed as L-norvaline azolide) is “highly effective”. Besides, in the data set with ICR mice, the “Survival (in words)” value was “all animals survived”. For the same compound, the abnormal pulmonary pathology result in the data set with ICR mice was “no animals showed abnormal pulmonary pathology”. The Emphysema entry is listed as “No” in data set [4] (IT 1 umole inhibitor, no PPE) and “No” in data set [4] (IT 34 ug PPE + 1 umole inhibitor). Moreover, the “Prevention of emphysema (in words)” value in data set [4] (given simultaneously with PPE) was “prevented emphysema”.
`c1c[nH]cn1` [imidazole]: the “thromboxane synthetase inhibition (in words)” value with thromboxane synthetease is listed as “inhibitor of thromboxane synthetease”.
